This is an account of results in paper PMC3254785 (2011).

For orientation: Kd means the concentration at which binding is half-saturated. A low value points to a tighter complex.

The target in experiment [1] is T1, soluble guanylyl cyclase (sGC) (Homo sapiens, UniProt Q02153).
T1 sequence (Q02153 1-619): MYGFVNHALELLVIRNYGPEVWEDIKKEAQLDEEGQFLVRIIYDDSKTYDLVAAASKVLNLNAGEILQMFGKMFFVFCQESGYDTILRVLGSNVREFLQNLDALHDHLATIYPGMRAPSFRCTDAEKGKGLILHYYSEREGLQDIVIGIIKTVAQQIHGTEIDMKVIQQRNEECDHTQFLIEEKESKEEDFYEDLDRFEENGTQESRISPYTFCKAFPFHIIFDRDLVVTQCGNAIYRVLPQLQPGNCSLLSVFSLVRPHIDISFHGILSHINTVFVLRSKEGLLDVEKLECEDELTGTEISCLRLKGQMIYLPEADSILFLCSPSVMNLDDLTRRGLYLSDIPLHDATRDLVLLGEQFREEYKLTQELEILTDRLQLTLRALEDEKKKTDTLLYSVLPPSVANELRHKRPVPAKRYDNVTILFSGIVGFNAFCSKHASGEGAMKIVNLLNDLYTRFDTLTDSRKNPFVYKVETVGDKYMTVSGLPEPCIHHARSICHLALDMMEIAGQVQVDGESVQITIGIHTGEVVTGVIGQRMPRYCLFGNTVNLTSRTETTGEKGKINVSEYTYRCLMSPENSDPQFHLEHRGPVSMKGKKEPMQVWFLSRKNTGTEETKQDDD
T1 sequence (Q02108 1-690 partner): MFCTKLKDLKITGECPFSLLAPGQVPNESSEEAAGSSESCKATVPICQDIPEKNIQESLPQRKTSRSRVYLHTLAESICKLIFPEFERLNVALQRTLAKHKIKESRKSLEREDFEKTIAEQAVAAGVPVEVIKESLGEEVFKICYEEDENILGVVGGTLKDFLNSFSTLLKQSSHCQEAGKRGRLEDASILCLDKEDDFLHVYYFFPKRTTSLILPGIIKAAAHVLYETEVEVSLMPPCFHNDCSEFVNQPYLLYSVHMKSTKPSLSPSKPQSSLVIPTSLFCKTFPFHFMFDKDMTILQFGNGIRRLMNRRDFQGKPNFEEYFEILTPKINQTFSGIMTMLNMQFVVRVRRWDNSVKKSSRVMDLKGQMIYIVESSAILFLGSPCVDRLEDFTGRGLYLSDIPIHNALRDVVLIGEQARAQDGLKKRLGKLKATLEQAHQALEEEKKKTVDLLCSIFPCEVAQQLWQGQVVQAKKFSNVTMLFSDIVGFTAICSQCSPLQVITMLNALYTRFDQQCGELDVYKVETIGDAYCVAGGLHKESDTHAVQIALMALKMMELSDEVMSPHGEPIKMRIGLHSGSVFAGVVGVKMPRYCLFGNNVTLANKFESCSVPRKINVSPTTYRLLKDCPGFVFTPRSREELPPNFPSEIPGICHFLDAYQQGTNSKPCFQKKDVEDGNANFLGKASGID
Put plainly: anaerobic. The format is binding.

In another experiment the target is Ns H-NOX (Nostoc sp. PCC 7120 = FACHB-418, UniProt A0ACD6B960). Put plainly: biochemical.
Sequence of Ns H-NOX (A0ACD6B960 1-189): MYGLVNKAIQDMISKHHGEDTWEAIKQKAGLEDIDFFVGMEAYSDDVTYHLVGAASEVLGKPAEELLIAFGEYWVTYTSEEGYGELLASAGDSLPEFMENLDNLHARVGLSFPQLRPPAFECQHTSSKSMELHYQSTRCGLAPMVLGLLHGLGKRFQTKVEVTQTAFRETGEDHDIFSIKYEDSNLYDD

In experiment [1], `[N]=O` [NO] displayed an equilibrium dissociation constant (Kd) of 54 nM. `O=O` [O2]: binding on Ns H-NOX was characterised by a dissociation constant (Kd) of 13 mM. That is a millimolar value.
